Results on 1 compound are retold here after patent publication US6703382B2, “Small molecule inhibitors targeted at Bcl-2” (Georgetown University Medical Center, priority 2000, dated 2004).

Experiment [1] deals with MDA-231 cells. The experiment in a line: Hoechst Dye apoptosis assay, MDA-231. The format is cell-based, human. Particulars: 10 μM, 12 hours, MDA-231, high Bcl-2 expression. The text has this:
(§1) Bcl-2 protein expression in human breast and other cancer cell line is characterized herein. Cell lines MCF-7, MDA-231 and MDA-361 express high levels of Bcl-2; MDA-468, BT474 and MDA-435 express median levels. […] Human myeloid leukemia cell HL-60 expresses the highest level of Bcl-2 protein among all the cell lines examined. Accordingly, MDA-231 and HL-60 cell lines with high Bcl-2 expression are positive cells and MDA-453 and T47D are negative control cells. The level of Bcl-2 protein expression is detected by Western blotting.
(§2) Using a Hoechst Dye assay, cells are treated at different doses for 12 hours and apoptotic cells are visually identified and counted under the microscope. Induction of apoptosis is evident after the treatment with Formula II at 10 μM in MDA-453 or T 47D cell lines, cells with low Bcl-2 expression.

Another experiment relates to T 47D cells. Briefly: Hoechst Dye apoptosis assay, T47D. It is filed as cell-based, human. To be noted: 10 μM, 12 hours, low Bcl-2 expression.
Text: as §1, §2

Experiment [2] has as its target Bcl-2 (GST-fused soluble protein) / Flu-Bak-BH3 peptide (Homo sapiens, UniProt P10415). To be noted: competitive FP assay, FIG. 1.
Experiment [3] relates to HL-60 cells. Briefly: Hoechst Dye apoptosis assay, HL-60. It is filed as cell-based, human. To be noted: 10 μM, 12 hours, HL-60, high Bcl-2 expression.
Text: as §1, §2

In experiment [4] the test system is MDA-231 cells. Briefly: Trypan-blue exclusion cell survival assay, MDA-231. The format is cell-based. Particulars: Homo sapiens, MDA-MB-231; MDA-231, trypan-blue exclusion; read-out: cell killing IC50. As for the experimental part: (§3) FIG. 3. Illustrated the effects of the compound of formula II on cell viability. Cells are plated in 24-well plates, incubated with said compound at appropriate concentrations for 14 hr. Cell viability is determined by trypan blue exclusion with hemocytometer. Percent of viable cells, as compared with untreated cells, is plotted against drug concentration.
(§4) The ability of Formula II to inhibit cell viability is highly specific and correlates well with the Bcl-2 protein expression level in these cancer cells.

In experiment [5] the test system is HL-60 cells. Briefly: Trypan-blue exclusion cell survival assay, HL-60. It is filed as cell-based. Particulars: Homo sapiens; HL-60, trypan-blue exclusion; read-out: cell killing IC50. As for the experimental part:
as §3, §4

Experiment [6] concerns HL-60 cells. Briefly: Annexin-V FACS apoptosis assay, HL-60. It is filed as cell-based, human. To be noted: 24 hours. As for the experimental part:
(§5) The Annexin-V FACS assay yields a more quantitative assessment of the ability of Formula II to induce of apoptosis in HL-60 and MDA-231 cells. MDA-231 cells treated with 0 (untreated), 4 and 10 μM of Formula II for 24 hours provide 0, 13% and 20.0% apoptotic cells, respectively, while HL-60 cells treated with 0, 5, 10, and 20 μM of Formula II for 24 hours provide 0, 24%, 31% and 67% of apoptotic cells, respectively (FIG. 3). Therefore, Formula II induces apoptosis in a highly dose-dependent manner in MDA-231 and HL-60 cell lines with Bcl-2 protein overexpression.

Another experiment concerns MDA-453 cells. Briefly: Hoechst Dye apoptosis assay, MDA-453. The format is cell-based, human. Particulars: 10 μM, 12 hours, MDA-453, low Bcl-2 expression.
Text: as §1, §2

Experiment [7] has as its system MDA-231 cells. The experiment in a line: Annexin-V FACS apoptosis assay, MDA-231. The format is cell-based, human. Particulars: 24 hours. How it is done:
as §5

Bcl-2 (GST-fused soluble protein) / Flu-Bak-BH3 peptide, sequence (P10415 1-205 limits assumed): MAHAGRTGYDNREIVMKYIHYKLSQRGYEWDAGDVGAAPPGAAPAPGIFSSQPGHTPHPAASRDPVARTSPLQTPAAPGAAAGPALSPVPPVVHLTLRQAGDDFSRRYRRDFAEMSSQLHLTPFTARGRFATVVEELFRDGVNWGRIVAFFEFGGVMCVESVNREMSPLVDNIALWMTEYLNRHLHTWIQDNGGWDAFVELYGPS

As for `COc1ccc2c(c1)CCc1cc(OC)ccc1[N+]([O-])=[N+]2[O-]` [Formula II, 2,9-dimethoxy-11,12-dihydrodibenzo[c,g][1,2] diazocine-5,6-dioxide], the induction of apoptosis result in the experiment with MDA-231 cells [1] is recorded as “significant apoptosis”; in the experiment on T 47D cells, “evident”; in the experiment with HL-60 cells [3], “significant apoptosis”; with MDA-453 cells, “evident”. Further, the “inhibition of the binding of the Bak-BH3 peptide to Bcl-2 in vitro” value in [2] is “inhibits the binding”. The IC50 (in general, the point on the concentration scale where inhibition reaches its midpoint) with MDA-231 cells [4] is 15 µM; in the experiment with HL-60 cells [5], 12 µM. For the same compound, the apoptotic cells turned out to be 24% in the experiment on HL-60 cells [6] (HL-60, 5 μM); 31% in the experiment with HL-60 cells [6] (HL-60, 10 μM); 67% with HL-60 cells [6] (HL-60, 20 μM); 13% in the experiment on MDA-231 cells [7] (MDA-231, 4 μM); 20.0% in the experiment on MDA-231 cells [7] (MDA-231, 10 μM).
